What was measured:
[1] = biological target: Serine/threonine-protein kinase 32B (Homo sapiens, UniProt Q9NY57); assay: YANK2(S32BLGY2) Takeda global kinase panel
[2] = biological target: Histamine H1 receptor (Homo sapiens) (UniProt P35367); conditions: Compound concentration 10.0 uM
[3] = biological target: Dual specificity mitogen-activated protein kinase kinase 1 (Homo sapiens, UniProt Q02750); assay: MEK1 [MAP2K1(M2K1LGF1)] Takeda global kinase panel
[4] = biological target: Fibroblast growth factor receptor 3 (Homo sapiens, UniProt P22607); assay: FGFR3(FGF3LGF1) Takeda global kinase panel
[5] = biological target: Interleukin-1 receptor-associated kinase 3 (Homo sapiens, UniProt Q9Y616); assay: IRAK3(IRK3PFE1) Takeda global kinase panel
[6] = biological target: Cyclin-dependent kinase 16 (Homo sapiens, UniProt Q00536); assay: PCTAIRE1(CD16SGS1) Takeda global kinase panel
[7] = biological target: Myosin light chain kinase 2, skeletal/cardiac muscle (Homo sapiens, UniProt Q9H1R3); assay: skMLCK(MYL2LHY1) Takeda global kinase panel
[8] = biological target: NT-3 growth factor receptor (Homo sapiens, UniProt Q16288); assay: TRKC(NTR3LGN1) Takeda global kinase panel
[9] = biological target: Bromodomain testis-specific protein (Homo sapiens, UniProt Q58F21); assay: BRDT(BRDTLGRC) Takeda global kinase panel
[10] = biological target: Activin receptor type-1-like (Homo sapiens, UniProt P37023); assay: ALK1(ACL1LGF1) Takeda global kinase panel
[11] = biological target: NUAK family SNF1-like kinase 1 (Homo sapiens, UniProt O60285); assay: NuaK1(NUA1LGF5) Takeda global kinase panel
[12] = biological target: Tyrosine-protein kinase BTK (Homo sapiens, UniProt Q06187); assay: BTK(BTK1CGF1) Takeda global kinase panel
[13] = biological target: Tyrosine-protein kinase TXK (Homo sapiens, UniProt P42681); assay: TXK(TXK1CGD5) Takeda global kinase panel
[14] = biological target: Cyclin-dependent kinase 18 (Homo sapiens, UniProt Q07002); assay: PCTAIRE3(CD18SGS1) Takeda global kinase panel
[15] = biological target: Serine/threonine-protein kinase NLK (Homo sapiens, UniProt Q9UBE8); assay: NLK(NLK1LGI5) Takeda global kinase panel
[16] = biological target: Insulin receptor (Homo sapiens, UniProt P06213); assay: InSR(INSRLGY1) Takeda global kinase panel
[17] = biological target: Delta-type opioid receptor (Homo sapiens) (UniProt P41143); conditions: Compound concentration 10.0 uM
[18] = biological target: Glucocorticoid receptor (Homo sapiens) (UniProt P04150); conditions: Compound concentration 10.0 uM
[19] = biological target: Serine/threonine-protein kinase TAO2 (Homo sapiens, UniProt Q9UL54); assay: TAO2(TAO2LGF1) Takeda global kinase panel
[20] = biological target: Mitogen-activated protein kinase 15 (Homo sapiens, UniProt Q8TD08); assay: ERK7(MP15LGY1) Takeda global kinase panel
[21] = biological target: Muscle, skeletal receptor tyrosine-protein kinase (Homo sapiens, UniProt O15146); assay: MUSK(MUSKLGY1) Takeda global kinase panel
[22] = biological target: Dual specificity protein kinase CLK1 (Homo sapiens, UniProt P49759); assay: CLK1(CLK1LGF1) Takeda global kinase panel
[23] = biological target: Myosin light chain kinase (Homo sapiens, UniProt Q32MK0); assay: caMLCK(MYL3LGF1) Takeda global kinase panel
[24] = biological target: Death-associated protein kinase 3 (Homo sapiens, UniProt O43293); assay: DAPK3(DAP3LGP1) Takeda global kinase panel
[25] = biological target: TGF-beta receptor type-1 (Homo sapiens, UniProt P36897); assay: TGFbetaR1(TGF1LGF1) Takeda global kinase panel
[26] = biological target: Serine/threonine-protein kinase 33 (Homo sapiens, UniProt Q9BYT3); assay: STK33(ST33LGF1) Takeda global kinase panel
[27] = biological target: Serine/threonine-protein kinase D3 (Homo sapiens, UniProt O94806); assay: PKD3(PRD3LGG5) Takeda global kinase panel
[28] = biological target: Cyclin-dependent kinase 12 (Homo sapiens, UniProt Q9NYV4); assay: CRK7(CD12PHS1) Takeda global kinase panel
[29] = biological target: Cyclin-dependent kinase 4 (Homo sapiens, UniProt P11802); assay: CDK4(CDK4CGS1) Takeda global kinase panel
[30] = biological target: Serine/threonine-protein kinase B-raf (Homo sapiens, UniProt P15056); assay: BRAF(BRAFLGY1) Takeda global kinase panel
[31] = biological target: Tyrosine-protein kinase Fgr (Homo sapiens, UniProt P09769); assay: Fgr(FGR1LGF1) Takeda global kinase panel
[32] = biological target: Serine/threonine-protein kinase VRK2 (Homo sapiens, UniProt Q86Y07); assay: VRK2(VRK2LGRI) Takeda global kinase panel
[33] = biological target: Androgen receptor (Homo sapiens) (UniProt P10275); conditions: Compound concentration 10.0 uM
[34] = biological target: Mitogen-activated protein kinase 10 (Homo sapiens, UniProt P53779); assay: JNK3(MP10LGF2) Takeda global kinase panel
[35] = biological target: Death-associated protein kinase 1 (Homo sapiens, UniProt P53355); assay: DAPK1(DAP1LGF1) Takeda global kinase panel
[36] = biological target: Ephrin type-B receptor 4 (Homo sapiens, UniProt P54760); assay: EphB4(EPB4LGY1) Takeda global kinase panel
[37] = biological target: T1, 5-hydroxytryptamine receptor 3A (Homo sapiens) (UniProt P46098); assay: Inhibition of Serotonin (5-Hydroxytryptamine) 5-HT3 at 10 µM in the Eurofins-Panlabs radioligand binding assay (Eurofins_assay_271910); parameters: ligand concentration 0.69 nM; conditions: Compound concentration 10.0 uM
T1 sequence (whole entry): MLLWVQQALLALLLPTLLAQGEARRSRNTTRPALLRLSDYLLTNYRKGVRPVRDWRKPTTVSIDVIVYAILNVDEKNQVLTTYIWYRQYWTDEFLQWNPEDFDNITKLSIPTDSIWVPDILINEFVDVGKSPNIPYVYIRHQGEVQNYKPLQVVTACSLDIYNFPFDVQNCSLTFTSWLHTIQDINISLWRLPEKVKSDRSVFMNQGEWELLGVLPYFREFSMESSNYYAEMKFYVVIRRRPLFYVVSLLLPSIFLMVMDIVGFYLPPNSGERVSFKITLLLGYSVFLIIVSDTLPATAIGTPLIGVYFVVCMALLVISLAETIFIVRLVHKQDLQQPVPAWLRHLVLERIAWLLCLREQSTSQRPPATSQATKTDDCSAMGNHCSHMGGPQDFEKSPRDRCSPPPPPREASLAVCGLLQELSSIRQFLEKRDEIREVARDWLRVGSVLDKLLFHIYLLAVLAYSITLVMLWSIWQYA

[38] = biological target: Casein kinase I isoform alpha-like (Homo sapiens, UniProt Q8N752); assay: CK1alpha2(C1ALLGI5) Takeda global kinase panel
[39] = biological target: Myotonin-protein kinase (Homo sapiens, UniProt Q09013); assay: DMPK(DMPKLGF1) Takeda global kinase panel
[40] = biological target: Protein kinase C beta type (Homo sapiens, UniProt P05771); assay: PKCbeta(PRKBPHY3) Takeda global kinase panel

Sequence of Mitogen-activated protein kinase 15 (Q8TD08 whole entry): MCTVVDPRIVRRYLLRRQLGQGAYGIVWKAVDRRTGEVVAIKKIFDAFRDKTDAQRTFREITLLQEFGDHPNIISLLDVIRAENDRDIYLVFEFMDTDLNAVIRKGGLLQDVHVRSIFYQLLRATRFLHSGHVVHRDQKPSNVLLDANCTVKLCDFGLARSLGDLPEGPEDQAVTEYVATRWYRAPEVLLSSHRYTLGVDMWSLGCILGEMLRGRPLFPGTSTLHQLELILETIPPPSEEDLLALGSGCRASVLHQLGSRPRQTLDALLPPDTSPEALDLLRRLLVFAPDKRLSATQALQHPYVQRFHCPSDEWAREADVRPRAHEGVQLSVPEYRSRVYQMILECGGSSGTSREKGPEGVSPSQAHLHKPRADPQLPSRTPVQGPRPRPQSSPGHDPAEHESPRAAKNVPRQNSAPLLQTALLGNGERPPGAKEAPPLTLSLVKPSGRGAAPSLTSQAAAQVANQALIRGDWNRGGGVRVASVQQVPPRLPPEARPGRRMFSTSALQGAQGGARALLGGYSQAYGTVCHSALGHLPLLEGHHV
Sequence of Fibroblast growth factor receptor 3 (P22607 whole entry): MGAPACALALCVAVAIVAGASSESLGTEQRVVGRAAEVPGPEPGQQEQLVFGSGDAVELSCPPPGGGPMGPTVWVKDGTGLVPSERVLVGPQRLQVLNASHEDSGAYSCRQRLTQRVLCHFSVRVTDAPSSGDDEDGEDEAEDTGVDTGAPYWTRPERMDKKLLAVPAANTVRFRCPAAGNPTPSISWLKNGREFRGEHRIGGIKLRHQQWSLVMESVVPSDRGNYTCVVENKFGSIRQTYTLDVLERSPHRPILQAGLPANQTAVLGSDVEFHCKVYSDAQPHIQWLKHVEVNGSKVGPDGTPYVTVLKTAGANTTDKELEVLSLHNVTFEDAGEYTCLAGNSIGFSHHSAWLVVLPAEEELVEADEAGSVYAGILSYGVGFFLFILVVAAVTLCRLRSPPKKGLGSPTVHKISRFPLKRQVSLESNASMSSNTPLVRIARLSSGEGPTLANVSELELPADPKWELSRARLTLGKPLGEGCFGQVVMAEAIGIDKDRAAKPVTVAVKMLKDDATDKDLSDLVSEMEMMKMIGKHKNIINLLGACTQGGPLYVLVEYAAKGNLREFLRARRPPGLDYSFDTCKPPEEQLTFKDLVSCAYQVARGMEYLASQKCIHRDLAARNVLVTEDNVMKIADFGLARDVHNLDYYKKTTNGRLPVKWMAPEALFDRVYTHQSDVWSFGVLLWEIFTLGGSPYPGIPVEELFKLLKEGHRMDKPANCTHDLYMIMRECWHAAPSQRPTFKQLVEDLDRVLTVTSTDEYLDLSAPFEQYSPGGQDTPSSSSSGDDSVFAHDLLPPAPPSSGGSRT
Sequence of Ephrin type-B receptor 4 (P54760 whole entry): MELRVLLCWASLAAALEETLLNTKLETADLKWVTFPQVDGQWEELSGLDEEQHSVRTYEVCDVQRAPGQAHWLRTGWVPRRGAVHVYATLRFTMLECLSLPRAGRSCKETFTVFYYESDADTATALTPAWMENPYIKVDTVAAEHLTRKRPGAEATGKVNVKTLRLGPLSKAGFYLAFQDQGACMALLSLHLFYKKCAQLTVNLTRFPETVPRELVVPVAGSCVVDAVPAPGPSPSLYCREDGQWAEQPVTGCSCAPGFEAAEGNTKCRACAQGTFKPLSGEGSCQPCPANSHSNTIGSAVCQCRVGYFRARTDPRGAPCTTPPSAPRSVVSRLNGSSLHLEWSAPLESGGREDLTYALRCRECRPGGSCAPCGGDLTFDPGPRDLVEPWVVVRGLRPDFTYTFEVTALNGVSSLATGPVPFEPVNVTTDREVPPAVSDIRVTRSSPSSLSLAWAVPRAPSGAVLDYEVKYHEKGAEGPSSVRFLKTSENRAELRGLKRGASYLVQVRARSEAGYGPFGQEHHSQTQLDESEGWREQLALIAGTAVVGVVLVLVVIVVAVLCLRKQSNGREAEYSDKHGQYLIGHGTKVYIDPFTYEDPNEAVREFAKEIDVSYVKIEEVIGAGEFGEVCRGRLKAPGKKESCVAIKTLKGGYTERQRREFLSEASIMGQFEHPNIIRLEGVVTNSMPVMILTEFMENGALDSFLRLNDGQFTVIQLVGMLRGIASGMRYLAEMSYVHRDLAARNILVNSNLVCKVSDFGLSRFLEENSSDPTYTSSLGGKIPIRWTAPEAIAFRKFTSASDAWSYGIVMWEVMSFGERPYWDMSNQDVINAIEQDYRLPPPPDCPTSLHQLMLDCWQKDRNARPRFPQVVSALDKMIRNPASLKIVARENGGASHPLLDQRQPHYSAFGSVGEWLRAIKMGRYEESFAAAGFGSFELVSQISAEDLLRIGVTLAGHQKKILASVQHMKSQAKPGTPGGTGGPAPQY
Sequence of Myotonin-protein kinase (Q09013 whole entry): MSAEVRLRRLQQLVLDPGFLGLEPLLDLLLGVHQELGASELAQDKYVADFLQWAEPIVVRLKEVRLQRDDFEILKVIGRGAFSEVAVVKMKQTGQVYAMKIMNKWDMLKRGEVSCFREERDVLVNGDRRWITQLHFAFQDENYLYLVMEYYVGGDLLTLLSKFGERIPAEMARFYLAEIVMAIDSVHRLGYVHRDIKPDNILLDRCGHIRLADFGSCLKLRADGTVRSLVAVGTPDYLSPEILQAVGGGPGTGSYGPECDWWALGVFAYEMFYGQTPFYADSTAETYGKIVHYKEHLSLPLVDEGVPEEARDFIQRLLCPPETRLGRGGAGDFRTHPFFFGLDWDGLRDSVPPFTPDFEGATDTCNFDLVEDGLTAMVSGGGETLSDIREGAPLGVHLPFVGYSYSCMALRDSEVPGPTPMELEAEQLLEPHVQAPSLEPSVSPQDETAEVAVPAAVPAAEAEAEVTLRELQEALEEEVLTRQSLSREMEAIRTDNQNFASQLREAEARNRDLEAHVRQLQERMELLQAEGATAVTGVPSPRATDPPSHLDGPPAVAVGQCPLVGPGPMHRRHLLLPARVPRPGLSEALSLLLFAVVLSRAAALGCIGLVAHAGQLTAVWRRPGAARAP
Sequence of Serine/threonine-protein kinase VRK2 (Q86Y07 whole entry): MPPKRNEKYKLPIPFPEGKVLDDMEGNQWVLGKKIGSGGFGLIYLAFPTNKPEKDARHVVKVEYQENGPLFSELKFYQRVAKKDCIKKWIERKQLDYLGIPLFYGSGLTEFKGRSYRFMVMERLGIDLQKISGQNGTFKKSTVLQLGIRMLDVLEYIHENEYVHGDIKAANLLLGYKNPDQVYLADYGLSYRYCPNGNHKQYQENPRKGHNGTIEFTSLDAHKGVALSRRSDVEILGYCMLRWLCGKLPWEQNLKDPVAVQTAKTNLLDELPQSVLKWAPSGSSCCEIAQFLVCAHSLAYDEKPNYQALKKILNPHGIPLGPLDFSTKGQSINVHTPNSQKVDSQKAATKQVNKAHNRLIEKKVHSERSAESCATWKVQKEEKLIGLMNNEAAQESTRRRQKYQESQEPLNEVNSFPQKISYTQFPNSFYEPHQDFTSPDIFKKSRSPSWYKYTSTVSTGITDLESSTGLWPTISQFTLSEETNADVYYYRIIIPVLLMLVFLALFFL
Sequence of NT-3 growth factor receptor (Q16288 whole entry): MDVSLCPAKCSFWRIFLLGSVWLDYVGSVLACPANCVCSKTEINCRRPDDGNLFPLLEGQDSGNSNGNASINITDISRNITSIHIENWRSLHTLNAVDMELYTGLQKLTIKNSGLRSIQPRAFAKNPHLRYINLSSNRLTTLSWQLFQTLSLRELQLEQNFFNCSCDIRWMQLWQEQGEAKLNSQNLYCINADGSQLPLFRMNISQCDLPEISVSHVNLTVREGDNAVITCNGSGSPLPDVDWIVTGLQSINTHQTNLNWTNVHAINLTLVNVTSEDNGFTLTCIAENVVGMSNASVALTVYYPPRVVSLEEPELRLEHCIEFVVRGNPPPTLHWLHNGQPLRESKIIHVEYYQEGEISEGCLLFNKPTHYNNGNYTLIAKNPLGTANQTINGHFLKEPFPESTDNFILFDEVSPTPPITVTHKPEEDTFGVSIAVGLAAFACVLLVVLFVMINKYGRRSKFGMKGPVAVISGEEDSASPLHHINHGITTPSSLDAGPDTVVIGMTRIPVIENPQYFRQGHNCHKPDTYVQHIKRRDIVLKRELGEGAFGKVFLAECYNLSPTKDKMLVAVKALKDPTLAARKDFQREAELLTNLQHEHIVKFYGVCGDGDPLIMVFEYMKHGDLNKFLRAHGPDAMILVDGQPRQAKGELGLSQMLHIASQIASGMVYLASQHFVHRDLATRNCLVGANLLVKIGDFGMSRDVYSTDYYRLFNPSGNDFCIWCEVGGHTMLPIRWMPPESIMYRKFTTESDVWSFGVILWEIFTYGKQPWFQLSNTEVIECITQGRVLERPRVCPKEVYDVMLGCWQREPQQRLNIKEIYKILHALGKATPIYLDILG
Sequence of Cyclin-dependent kinase 16 (Q00536 whole entry): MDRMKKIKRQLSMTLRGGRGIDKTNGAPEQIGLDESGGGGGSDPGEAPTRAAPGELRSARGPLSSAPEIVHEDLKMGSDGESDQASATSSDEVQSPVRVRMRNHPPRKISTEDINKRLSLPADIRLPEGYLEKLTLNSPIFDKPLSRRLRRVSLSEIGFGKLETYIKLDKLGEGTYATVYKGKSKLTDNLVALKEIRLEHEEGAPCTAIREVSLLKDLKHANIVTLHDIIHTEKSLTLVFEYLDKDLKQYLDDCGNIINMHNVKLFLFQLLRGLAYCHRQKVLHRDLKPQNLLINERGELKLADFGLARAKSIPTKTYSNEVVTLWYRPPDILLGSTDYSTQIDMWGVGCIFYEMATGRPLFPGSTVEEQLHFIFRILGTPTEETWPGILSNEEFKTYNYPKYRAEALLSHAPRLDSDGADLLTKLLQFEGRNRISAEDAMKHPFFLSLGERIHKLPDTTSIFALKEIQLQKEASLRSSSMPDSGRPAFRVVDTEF

Row | Structure (SMILES) | IC50 [1] | inhibition [2] | IC50 [3] | IC50 [4] | IC50 [5] | IC50 [6] | IC50 [7] | IC50 [8] | IC50 [9] | IC50 [10] | IC50 [11] | IC50 [12] | IC50 [13] | IC50 [14] | IC50 [15] | IC50 [16] | inhibition [17] | inhibition [18] | IC50 [19] | IC50 [20] | other results
1 | CN1C(=O)[C@@H](N2CCc3cn(Cc4ccccc4)nc3C2=O)COc2ccccc21 [TP-030-1] | 1 µM | 3% | 1 µM | 1 µM | 1 µM | 1 µM | 1 µM | 1 µM | 1 µM | 1 µM | 1 µM | 1 µM | 1 µM | 1 µM | 1 µM | 1 µM | 3% | 5% | 1 µM | 1 µM | IC50 [21]: 1 µM; IC50 [22]: 1 µM; IC50 [23]: 1 µM; IC50 [24]: 1 µM; IC50 [25]: 1 µM; IC50 [26]: 1 µM; IC50 [27]: 1 µM; IC50 [28]: 1 µM; IC50 [29]: 1 µM; IC50 [30]: 1 µM; IC50 [31]: 1 µM; IC50 [32]: 1 µM; inhibition [33]: 6%; IC50 [34]: 1 µM; IC50 [35]: 1 µM; IC50 [36]: 1 µM; inhibition [37]: 6%; IC50 [38]: 1 µM; IC50 [39]: 1 µM; IC50 [40]: 1 µM
2 | CN1C(=O)[C@@H](N2CCc3cn(CC4CCS(=O)(=O)CC4)nc3C2=O)COc2ccccc21 [TP-030n] | 1 µM | 8% | 1 µM | 1 µM | 1 µM | 1 µM | 1 µM | 1 µM | 1 µM | 1 µM | 1 µM | 1 µM | 1 µM | 1 µM | 1 µM | 1 µM | -8% | 3% | 1 µM | 1 µM | IC50 [21]: 1 µM; IC50 [22]: 1 µM; IC50 [23]: 1 µM; IC50 [24]: 1 µM; IC50 [25]: 1 µM; IC50 [26]: 1 µM; IC50 [27]: 1 µM; IC50 [28]: 1 µM; IC50 [29]: 1 µM; IC50 [30]: 1 µM; IC50 [31]: 1 µM; IC50 [32]: 1 µM; inhibition [33]: 0%; IC50 [34]: 1 µM; IC50 [35]: 1 µM; IC50 [36]: 1 µM; inhibition [37]: 16%; IC50 [38]: 1 µM; IC50 [39]: 1 µM; IC50 [40]: 1 µM
